Reference: patent EP3839043A1, “SCREENING METHODS FOR COMPOUNDS MODULATING POLYAMINE TRANSPORT” (Katholieke Universiteit Leuven, priority 2019, dated 2021)

Molecular target: T1, Purified ATP13A2 (Homo sapiens, UniProt Q9NQ11)
T1 sequence (Q9NQ11 1-1175 isoform Q9NQ11-3): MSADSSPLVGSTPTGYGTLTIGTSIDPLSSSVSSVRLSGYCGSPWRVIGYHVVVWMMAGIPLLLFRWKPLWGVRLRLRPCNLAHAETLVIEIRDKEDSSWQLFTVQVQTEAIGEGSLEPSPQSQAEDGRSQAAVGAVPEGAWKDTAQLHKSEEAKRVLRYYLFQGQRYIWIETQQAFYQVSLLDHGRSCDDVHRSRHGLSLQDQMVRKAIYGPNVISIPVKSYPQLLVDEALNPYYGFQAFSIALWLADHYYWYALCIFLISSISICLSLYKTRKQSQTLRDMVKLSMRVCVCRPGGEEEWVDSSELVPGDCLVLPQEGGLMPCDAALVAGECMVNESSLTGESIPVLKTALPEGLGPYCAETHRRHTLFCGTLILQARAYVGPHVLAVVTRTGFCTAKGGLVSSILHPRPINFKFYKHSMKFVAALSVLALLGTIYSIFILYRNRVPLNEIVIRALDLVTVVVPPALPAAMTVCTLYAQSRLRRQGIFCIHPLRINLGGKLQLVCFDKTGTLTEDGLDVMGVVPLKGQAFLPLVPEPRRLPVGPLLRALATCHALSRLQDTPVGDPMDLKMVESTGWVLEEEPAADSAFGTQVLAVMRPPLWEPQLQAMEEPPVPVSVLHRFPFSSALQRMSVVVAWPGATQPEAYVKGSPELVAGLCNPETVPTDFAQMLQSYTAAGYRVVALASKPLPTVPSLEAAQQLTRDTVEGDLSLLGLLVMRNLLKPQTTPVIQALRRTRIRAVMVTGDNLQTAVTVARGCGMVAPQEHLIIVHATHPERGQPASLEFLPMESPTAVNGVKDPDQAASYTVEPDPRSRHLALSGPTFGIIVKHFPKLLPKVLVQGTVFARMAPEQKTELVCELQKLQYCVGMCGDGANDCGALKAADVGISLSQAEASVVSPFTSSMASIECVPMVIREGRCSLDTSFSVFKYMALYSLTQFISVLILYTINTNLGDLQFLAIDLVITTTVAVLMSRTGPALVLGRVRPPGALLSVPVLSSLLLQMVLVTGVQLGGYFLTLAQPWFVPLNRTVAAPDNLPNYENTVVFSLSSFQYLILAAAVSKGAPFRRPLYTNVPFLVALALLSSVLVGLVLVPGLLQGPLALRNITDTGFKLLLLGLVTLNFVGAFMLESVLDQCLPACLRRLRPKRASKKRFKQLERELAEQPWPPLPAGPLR
Assay: ATPase assay (ADP-Glo Max), purified ATP13A2 from yeast expression system
Assay type: biochemical
Design: we obtained >95% pure, full length and solubilized ATP13A2; biotin acceptor domain (BAD) tag behind a thrombin cleavage site (C, cleaved yes); made in house; host or cells: S. cerevisiae W303-1B/Gal4-ΔPep4, pYeDP60 vector
Conditions: for Vmax ± SEM: Purified ATP13A2 with 125 µM PA and 125 µM PI(3,5)P2
Experimental: ATPase assay - The ATPase activity of ATP13A2 was assessed using a commercially available luminescence assay (ADP-Glo Max assay, Promega) that monitors the production of ADP via luciferase activity. The reactions were performed for 30 min (37°C) in a final volume of 25 µl. The assay reaction mixture contained 50 mM MOPS-KOH (pH 7), 100 mM KCI, 11 mM MgCl2, 1 mM DTT, 195 µM DDM, various concentrations of the indicated compound, and either microsomes (5 µg) harvested from SH-SY5Y cells overexpressing ATP13A2 (WT or mutants) or purified ATP13A2 (0.5 µg). When purified ATP13A2 was used, we included 125 µM PA, 125 µM PI(3,5)P2 and 19.5 µM DDM in the reaction buffer. The assay was started by the addition of 5 mM ATP and was terminated by adding 25 µl of ADP-Glo Reagent. The 96-well plate was then incubated for 40 min at room temperature, followed by the addition of 50 µl of ADP-Glo Max Detection Reagent. After 40 min, luminescence was detected using a FlexStation 3.0 system (Molecular Devices). Dose-response curves and n/Km/Vmax values were calculated using GraphPad Prism Software (GraphPad Software Inc.).
Transformation and overexpression of ATP13A2 in yeast - The S. cerevisiae W303-1B/Gal4-ΔPep4 strain (leu2-3, his3-11,15, trp1-1::TRP1-GAL10-GAL4, ura3-1, ade2-1, canr, cir^+, ΔPep4 MAT; a kind gift from Rosa Lopez Marques) was transformed according to the lithium acetate/single-stranded carrier DNA/polyethylene glycol method [Gietz, R. D. & Woods, R. A. Methods Enzymol 350, 87-96 (2002)], with the pYeDP60 vector containing a yeast codon optimized version of human ATP13A2 variant 2 (WT or the catalytically dead E343A mutant) followed by a thrombin cleavage site and a C-terminal BAD tag [Azouaoui, H. et al. PLoS One 9, e112176, (2014); Jidenko, M. et al.Protein Expr Purif 48, 32-42, (2006)]. The transformation mixture was grown for 48 h at 30°C on minimal medium agar plates lacking uracil (0.54% yeast nitrogen base without amino acids, 0.12% yeast drop-out mix without Ura, 2% glucose, and 2% agar) to select yeast colonies that acquired the plasmid. These colonies were then cultured in 20 ml of MM-Ura medium (0.67% yeast nitrogen base without amino acids, 0.19% yeast drop-out mix without Ura, and 2% glucose) and grown for 24 h at 28°C and 200 rpm. The MM-Ura yeast pre-culture was used to inoculate 100 ml of MM-Ura medium to a final OD600 of 0.2, followed by a 12 h incubation period (28°C and 200 rpm). The second pre-culture was inoculated into 4.5 l of YPGE2X medium (2% yeast extract, 2% bactopeptone, 1% glucose, and 2.7% ethanol) to a final OD600 of 0.05 and grown for 36 h (28°C and 175 rpm). ATP13A2-BAD expression was induced with 2% galactose, followed by a second galactose induction 12 h later. After another 12 h, the pellet was collected (1,000 x g; 10 min; 4°C).
Yeast membrane preparation - Yeast cells were broken with glass beads using a BeadBeater (BioSpec products). The lysis buffer contained 50 mM Tris-HCI (pH 7.5), 1 mM EDTA, 0.6 M sorbitol, 1 mM phenylmethylsulfonyl fluoride and SigmaFast protease inhibitor. To remove cell debris and nuclei, the crude extract was centrifuged at 2,000 x g for 20 min (4°C). The supernatant (S1) was centrifuged at 20,000 x g for 20 min (4°C) to pellet the heavy membrane fraction (P2), and the resulting supernatant (S2) was further centrifuged at 200,000 x g for 1 h (4°C). The resulting pellet (i.e., the light membrane fraction, P3) was resuspended in 20 mM HEPES-Tris (pH 7.4), 0.3 M sucrose and 0.1 mM CaCl2. The total protein concentration was determined using a Bradford assay (B6916, Sigma-Aldrich).
ATP13A2-BAD purification - The method used to purify ATP13A2 was based on the purification of overexpressed Drs2p from yeast membranes. Yeast P3 membranes were diluted to 5 mg of total protein/ml in SSR buffer (50 mM MOPS-KOH (pH 7), 100 mM KCI, 20% glycerol, 5 mM MgCl2, 1 mM DTT, and SigmaFast protease inhibitor cocktail) and solubilized using DDM, with a detergent to protein ratio of 1:1.

NCCCCNCCCN [Spermidine, spermidine]
Vmax ± SEM: 194 ± 26 nmol ADP/mg/min

NCCCNCCCCNCCCN [Spermine, spermine]
Vmax ± SEM: 159 ± 10 nmol ADP/mg/min | ATPase activity of purified ATP13A2 (indicated SPM concentrations): stimulated the ATPase activity
